Data taken from the supplement of paper PMC11451515.

Experiments:
Details in all cases: 48 h
[1] = test system: P12-Ichikawa; test: AUC of viability dose-response curve (% viability x log10 dose units); higher = less sensitive
Procedure, shortened: (§1)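 Library compounds in DMSO were applied for 48 h at 37°C at 11 threefold doses (47 μM to 0.79 nM) to medium-adapted leukemia cells in 1536-well plates holding 500 or 1000 cells/well. Luminescence from CellTiter-Glo One was normalised plate by plate against DMSO and cell-free wells. Area under the curve came from trapezoidal integration of a log-logistic fit, after scaling curves that rose above full viability and discarding those that failed quality control. The fit had four parameters and used log10 doses.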

[2] = test system: SEM cells; test: as above
Procedure, shortened: as §1

[3] = test system: NOMO1; test: as above
Procedure, shortened: as §1

[4] = test system: SEM cells; test: cell viability relative to DMSO control; higher = less cytotoxic
Procedure, shortened: (§2)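 Viability values are per-plate percentages of DMSO wells, with background from cell-free wells. Library compounds in DMSO were pin-dosed, in an 11-point threefold series from 47 μM to 0.79 nM, onto NOMO1 or SEM (500 cells/well) or P12-Ichikawa (1000 cells/well) leukemia cells in 1536-well plates (5 μl). Those cells had been adapted for at least four passages in each medium, and CellTiter-Glo One luminescence was read after 48 h at 37°C.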

[5] = test system: P12-Ichikawa; test: as above
Procedure, shortened: as §2

[6] = test system: NOMO1; test: as above
Procedure, shortened: as §2

Nc1nc(F)nc2c1ncn2[C@@H]1O[C@H](CO)[C@@H](O)[C@H]1O
AUC of viability dose-response curve
Details	[1]	[2]	[3]
HPLM + 10% dialyzed FBS	293	228	283
RPMI 5 mM glucose + 10% FBS	293	229	291
RPMI 5 mM glucose + 10% dialyzed FBS	282	217	279

[4], RPMI 5 mM glucose + 10% FBS
Details	cell viability [%]
0.000781 µM	114
0.00234 µM	119
0.00702 µM	125
0.0211 µM	141
0.0632 µM	115
0.19 µM	13.2
0.569 µM	10.9
1.71 µM	7.49
5.12 µM	6.64
15.4 µM	6.09
46.1 µM	6.22

CCN(CC)CCN1C(=O)\C(=N/C2=CC=CC=C12)CC3=CC=C(OC)C=C3
AUC of viability dose-response curve
Details	HPLM + 10% dialyzed FBS	RPMI 5 mM glucose + 10% FBS	RPMI 5 mM glucose + 10% dialyzed FBS
[1]	470	465	460
[3]	472	474	468

cell viability [%]
Details	[4]	[5]	[6]
HPLM + 10% dialyzed FBS, 0.000781 µM	68.2	107	111
HPLM + 10% dialyzed FBS, 0.00234 µM	67.5	111	117
HPLM + 10% dialyzed FBS, 0.00702 µM	87.2	110	99.1
HPLM + 10% dialyzed FBS, 0.0211 µM	76.3	114	118
HPLM + 10% dialyzed FBS, 0.0632 µM	85.3	119	119
HPLM + 10% dialyzed FBS, 0.19 µM	80.3	114	110
HPLM + 10% dialyzed FBS, 0.569 µM	99.1	120	115
HPLM + 10% dialyzed FBS, 1.71 µM	83.6	113	115
HPLM + 10% dialyzed FBS, 5.12 µM	75.2	109	109
HPLM + 10% dialyzed FBS, 15.4 µM	86.8	114	113
HPLM + 10% dialyzed FBS, 46.1 µM	85.4	113	116
RPMI 5 mM glucose + 10% FBS, 0.000781 µM	82.7	93.6	96.1
RPMI 5 mM glucose + 10% FBS, 0.00234 µM	93.1	113	101
RPMI 5 mM glucose + 10% FBS, 0.00702 µM	97.8	109	117
RPMI 5 mM glucose + 10% FBS, 0.0211 µM	78.5	119	109
RPMI 5 mM glucose + 10% FBS, 0.0632 µM	93.8	127	97.4
RPMI 5 mM glucose + 10% FBS, 0.19 µM	105	121	96.6
RPMI 5 mM glucose + 10% FBS, 0.569 µM	101	130	107
RPMI 5 mM glucose + 10% FBS, 1.71 µM	106	119	102
RPMI 5 mM glucose + 10% FBS, 5.12 µM	91.9	111	111
RPMI 5 mM glucose + 10% FBS, 15.4 µM	92	114	101
RPMI 5 mM glucose + 10% FBS, 46.1 µM	107	119	97.7
RPMI 5 mM glucose + 10% dialyzed FBS, 0.000781 µM	78.2	107	98.4
RPMI 5 mM glucose + 10% dialyzed FBS, 0.00234 µM	89.4	112	102
RPMI 5 mM glucose + 10% dialyzed FBS, 0.00702 µM	87.1	118	113
RPMI 5 mM glucose + 10% dialyzed FBS, 0.0211 µM	89	107	111
RPMI 5 mM glucose + 10% dialyzed FBS, 0.0632 µM	94.3	112	115
RPMI 5 mM glucose + 10% dialyzed FBS, 0.19 µM	97.1	109	119
RPMI 5 mM glucose + 10% dialyzed FBS, 0.569 µM	112	109	119
RPMI 5 mM glucose + 10% dialyzed FBS, 1.71 µM	96.6	111	121
RPMI 5 mM glucose + 10% dialyzed FBS, 5.12 µM	93.3	104	111
RPMI 5 mM glucose + 10% dialyzed FBS, 15.4 µM	88	96.5	101
RPMI 5 mM glucose + 10% dialyzed FBS, 46.1 µM	102	96.6	102

CCOC(=O)[C@H](CCc1ccccc1)N[C@@H](C)C(=O)N1[C@H](C(=O)O)C[C@@H]2CCC[C@@H]21
AUC of viability dose-response curve
Details	[1]	[2]	[3]
HPLM + 10% dialyzed FBS	451	450	443
RPMI 5 mM glucose + 10% FBS	451	440	449
RPMI 5 mM glucose + 10% dialyzed FBS	450	451	444

Details	cell viability [%]
[4], RPMI 5 mM glucose + 10% FBS, 0.000781 µM	110
[4], RPMI 5 mM glucose + 10% FBS, 0.00234 µM	116
[4], RPMI 5 mM glucose + 10% FBS, 0.00702 µM	117
[4], RPMI 5 mM glucose + 10% FBS, 0.0211 µM	143
[4], RPMI 5 mM glucose + 10% FBS, 0.0632 µM	147
[4], RPMI 5 mM glucose + 10% FBS, 0.19 µM	127
[4], RPMI 5 mM glucose + 10% FBS, 0.569 µM	135
[4], RPMI 5 mM glucose + 10% FBS, 1.71 µM	113
[4], RPMI 5 mM glucose + 10% FBS, 5.12 µM	121
[4], RPMI 5 mM glucose + 10% FBS, 15.4 µM	89
[4], RPMI 5 mM glucose + 10% FBS, 46.1 µM	7.67
[5], HPLM + 10% dialyzed FBS, 0.000781 µM	117
[5], HPLM + 10% dialyzed FBS, 0.00234 µM	124
[5], HPLM + 10% dialyzed FBS, 0.00702 µM	127
[5], HPLM + 10% dialyzed FBS, 0.0211 µM	124
[5], HPLM + 10% dialyzed FBS, 0.0632 µM	126
[5], HPLM + 10% dialyzed FBS, 0.19 µM	128
[5], HPLM + 10% dialyzed FBS, 0.569 µM	123
[5], HPLM + 10% dialyzed FBS, 1.71 µM	126
[5], HPLM + 10% dialyzed FBS, 5.12 µM	122
[5], HPLM + 10% dialyzed FBS, 15.4 µM	115
[5], HPLM + 10% dialyzed FBS, 46.1 µM	7.37

O=C(O)C1CCCN(CCC=C(c2ccccc2)c2ccccc2)C1 (stereo unspecified)
AUC of viability dose-response curve
Details	[1]	[2]	[3]
HPLM + 10% dialyzed FBS	469	463	425
RPMI 5 mM glucose + 10% FBS	459	462	453
RPMI 5 mM glucose + 10% dialyzed FBS	474	464	465

CC(=O)Nc1sc2c(c1-c1nc3ccccc3s1)CNC2
AUC of viability dose-response curve
Details	[1]	[2]	[3]
HPLM + 10% dialyzed FBS	463	437	386
RPMI 5 mM glucose + 10% FBS	452	443	462
RPMI 5 mM glucose + 10% dialyzed FBS	453	439	384

CN1CC(=O)\N=C1\NC(=O)NC2=CC(=CC=C2)Cl
AUC of viability dose-response curve
Details	[1]	[2]	[3]
HPLM + 10% dialyzed FBS	442	448	452
RPMI 5 mM glucose + 10% FBS	459	471	453
RPMI 5 mM glucose + 10% dialyzed FBS	463	457	468

CC1COC2=C3N1\C=C(C(O)=O)/C(=O)C3=CC(=C2N4CCN(C)CC4)F (stereo unspecified)
AUC of viability dose-response curve
Details	[1]	[2]	[3]
HPLM + 10% dialyzed FBS	463	470	459
RPMI 5 mM glucose + 10% FBS	452	453	443
RPMI 5 mM glucose + 10% dialyzed FBS	438	463	446

cell viability [%], [4]
Details	HPLM + 10% dialyzed FBS	RPMI 5 mM glucose + 10% FBS
0.000781 µM	119	111
0.00234 µM	128	124
0.00702 µM	122	125
0.0211 µM	122	136
0.0632 µM	121	142
0.19 µM	125	118
0.569 µM	128	117
1.71 µM	119	122
5.12 µM	118	117
15.4 µM	120	106
46.1 µM	119	115

Cl.Nc1ccn([C@@H]2O[C@H](CO)[C@@H](O)C2(F)F)c(=O)n1
AUC of viability dose-response curve
Details	[1]	[2]	[3]
HPLM + 10% dialyzed FBS	230	179	263
RPMI 5 mM glucose + 10% FBS	223	175	243
RPMI 5 mM glucose + 10% dialyzed FBS	212	141	248

CN(C)C/C=C/C(=O)Nc1cc2c(Nc3ccc(F)c(Cl)c3)ncnc2cc1O[C@H]1CCOC1
AUC of viability dose-response curve
Details	[1]	[2]	[3]
HPLM + 10% dialyzed FBS	337	320	339
RPMI 5 mM glucose + 10% FBS	338	304	342
RPMI 5 mM glucose + 10% dialyzed FBS	347	324	345

CC(=O)NC[C@H]1CN(c2ccc(N3CCOCC3)c(F)c2)C(=O)O1
AUC of viability dose-response curve
Details	[1]	[2]	[3]
HPLM + 10% dialyzed FBS	465	475	415
RPMI 5 mM glucose + 10% FBS	449	476	473
RPMI 5 mM glucose + 10% dialyzed FBS	429	475	450
